From patent US10294271B1, “Compound, composition, and method for detecting caspase activity and/or apoptosis” (Vanderbilt University, priority 2013, dated 2019) come the findings set out here.

For data set [1], the target named is T1, caspase-3 (Homo sapiens, UniProt P42574).
T1 construct: purchased BPS Bioscience
T1 sequence (P42574 29-175 limits assumed): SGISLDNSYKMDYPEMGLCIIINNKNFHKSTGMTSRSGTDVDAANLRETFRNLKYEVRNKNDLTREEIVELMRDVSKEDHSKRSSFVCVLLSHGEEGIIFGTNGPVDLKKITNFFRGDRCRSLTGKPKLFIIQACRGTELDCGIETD
T1 sequence (P42574 176-277 limits assumed): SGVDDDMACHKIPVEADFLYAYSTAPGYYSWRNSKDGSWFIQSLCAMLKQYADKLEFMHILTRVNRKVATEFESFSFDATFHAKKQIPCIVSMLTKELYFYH
Put plainly: Enzyme selectivity assay, caspase-3. It is filed as biochemical. The conditions noted are these: fluorescence assay kit, 0.0003-10 μM. The method, then: (§1) Relative enzyme inhibition of [^19F]FB-VAD-FMK was evaluated against caspase-3/6/7/8 using homogeneous caspase fluorescence assay kits (BPS Bioscience) and compared to parent peptide. Caspase inhibitor dissolved in caspase assay buffer and 1% DMSO (0.0003-10 μM) was combined with the caspase assay substrate and enzyme at room temperature for 30 min in accordance with the manufacturer's instructions. Fluorescence intensity was measured at an excitation of 360 nm and an emission of 460 nm using an Infinite M1000 microplate reader (Tecan).

For data set [2], the target named is T2, caspase-6 (Homo sapiens, UniProt P55212).
T2 construct: purchased BPS Bioscience
T2 sequence (P55212 24-179 limits assumed): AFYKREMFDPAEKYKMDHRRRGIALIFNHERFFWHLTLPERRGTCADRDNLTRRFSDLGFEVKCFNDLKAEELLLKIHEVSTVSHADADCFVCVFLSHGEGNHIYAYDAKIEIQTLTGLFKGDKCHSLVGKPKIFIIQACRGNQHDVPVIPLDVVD
T2 sequence (P55212 194-293 limits assumed): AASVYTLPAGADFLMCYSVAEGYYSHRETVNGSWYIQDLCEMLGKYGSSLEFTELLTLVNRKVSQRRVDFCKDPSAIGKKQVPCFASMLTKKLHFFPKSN
Nature of the data set: Enzyme selectivity assay, caspase-6. It counts as biochemical. The settings on record: fluorescence assay kit, 0.0003-10 μM. The procedure: as §1

In data set [3] the target is T3, caspase-7 (Homo sapiens, UniProt P55210).
T3 construct: purchased BPS Bioscience
T3 sequence (P55210 24-198 limits assumed): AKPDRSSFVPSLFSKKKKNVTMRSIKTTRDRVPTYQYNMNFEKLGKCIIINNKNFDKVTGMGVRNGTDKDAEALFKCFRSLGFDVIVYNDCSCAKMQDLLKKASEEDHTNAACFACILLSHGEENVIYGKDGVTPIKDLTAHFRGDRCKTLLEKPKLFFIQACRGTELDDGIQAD
T3 sequence (P55210 207-303 limits assumed): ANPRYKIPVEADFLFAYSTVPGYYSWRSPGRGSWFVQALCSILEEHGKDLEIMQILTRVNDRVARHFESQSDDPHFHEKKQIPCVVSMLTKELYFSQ
Nature of the data set: Enzyme selectivity assay, caspase-7. It counts as biochemical. The settings on record: fluorescence assay kit, 0.0003-10 μM. The procedure:
as §1

Data set [4] addresses T4, caspase-8 (Homo sapiens, UniProt Q14790).
T4 construct: purchased BPS Bioscience
Nature of the data set: Enzyme selectivity assay, caspase-8. The conditions noted are these: fluorescence assay kit, 0.0003-10 μM; compared with caspases-3/6/7. It counts as biochemical. The method, then:
as §1

A short description of data set [5]: Lipophilicity (log P7.5) by reversed phase HPLC. It is filed as physicochemical. The settings on record: for log P7.5: reversed phase HPLC, phosphate buffer pH 7.5, standard curve. The procedure:
[^19F]FB-VAD-FMK and [^127I]IZ-VAD-FMK were synthesized as described below. VAD-FMK (American Peptide) and Z-VAD-FMK (TOCRIS Bioscience, #2163) were obtained commercially and used without further purification. Relative enzyme selectivity of [^19F]FB-VAD-FMK compared to parent peptide was evaluated as described below. Lipophilicity measurements (Log P7.5) of peptide derivatives were determined analogously to reported methods and described below.
Lipophilicity characterization of compounds (3) and (5), as well as Z-VAD-FMK, was performed through log P7.5 quantification using methodology analogous to those previously reported (1). Using reversed phase HPLC (Phenomenex Luna C18, 5 μm, 100 Å, 4.6×250 mm) and a (85:15) phosphate buffer (2 mM, pH 7.5) isocratic system (1 mL/min), log P7.5 values were calculated using an average of compound retention times from three individual runs and standard curve derived linear regression. The following standards with known log P values were used for curve development: catechol, aniline, benzene, bromobenze, toluene, ethylbenzene, 2-chlorobiphenyl, biphenyl, 1-chloronaphthalene, 1,2,3-trimethylbenzene, 1,2,3,4-tetrachlorobenzene, 1,2,4,5-tetrabromobenzene, and pentachlorobenzene.

Data set [6] has as its system SW620 xenografts. Nature of the data set: Cleaved caspase-3 immunohistochemistry, SW620 xenografts. It is filed as in vivo, athymic nude mice. The settings on record: after imaging Day 5. The method, then: Dual xenograft-bearing mice were sequentially injected with 1×10^7 SW620 and 5×10^6 DLD-1 human CRC cells subcutaneously onto the left or right hind limbs (respectively) of 5- to 6-week old female, athymic nude mice (Harlan Sprague-Dawley). Palpable tumors were observed 2-3 weeks following inoculation. Animals bearing SW620 and DLD-1 xenograft tumors were treated with vehicle or AZD-1152 (25 mg/kg, DMSO) via intraperitoneal injection once daily for five days, analogous to previous work. In vivo PET imaging studies were performed on Day 5, approximately 4-6 h after treatment. Tumor tissues were harvested immediately following conclusion of imaging, fixed for 24 h in 5% buffered formalin, and blocked in paraffin. Immunohistochemistry for cleaved caspase-3 (Cell Signaling, #9664) was carried out as previously described. Tissues were stained using standard H&E methods and reviewed by an expert gastrointestinal pathologist (M. Kay Washington). […] Semi-quantitative IHC analysis was performed using the image processing software ImageJ and is further described below. For semi-quantitative analysis of cleaved caspase-3 IHC, the public domain image processing software ImageJ was used to selectively measure the area of positive staining of each cohort through manual threshold manipulation of hue, pixel saturation, and brightness. […]

Details of data set [7]: species or system male C57BL/6 mice. The settings on record: mouse, in vivo, iv. The method, then: Studies involving animals were conducted in accordance with federal and institutional guidelines. Biodistribution studies were performed using male C57BL/6 mice. A detailed description of in vitro drug response studies that support the subsequently described animal models and drug therapies is provided below. For all imaging studies, mice were maintained under 2% isofluorane anesthesia in 100% oxygen at 2 L/min and kept warm via a circulating water heating pad for the duration of the PET scan. Small-animal PET imaging was performed using a dedicated Concorde Microsystems Focus 220 microPET scanner (Siemens Preclinical Solutions). Animals were administered 7.4-9.3 MBq of [^18F]FB-VAD-FMK via intravenous injection. Both static and dynamic data sets were acquired. For static scans, animals were allowed free access to food and water during a 20-40 minute uptake period, followed by anesthetization and a 20-minute image acquisition. Analogously, sixty minute dynamic acquisitions for all xenografts were initiated at the time of [^18F]FB-VAD-FMK injection. Radiochemical preparation of [^18F]FB-VAD-FMK (Fig. S3) was performed as described above. The in vivo biodistribution of [^18F]FB-VAD-FMK was evaluated by ex vivo tissue counting at 60 min post-administration and correlative PET imaging up to 75 min post-administration.

The conditions of data set [8]: in vivo.
Data set [9] relates to caspase-3/7 activity in DiFi cells. Nature of the data set: Cellular caspase inhibition assay (Caspase-Glo 3/7). It counts as cell-based. The method, then: DiFi cells were propagated in Dulbecco's Modified Eagle's Medium (DMEM, Mediatech) and supplemented with 10% fetal bovine serum (Atlanta Biologicals) and 1 mg/mL gentamycin sulfate (Gibco) in a 95% humidity, 5% CO2, 37° C. atmosphere. Cells were seeded as sub-confluent monolayer cultures at a density of 1×10^4 per well into 96-well, black wall/bottom plates (BD Biosciences) and allowed to adhere for 24 h at 37° C. […] Cell media was then replaced with 1×PBS containing inhibitor (0, 10, 100, 1000, 10000 nM) and incubated at 37° C. for 30 min Inhibition was assessed using Caspase-Glo 3/7 reagent in accordance with the manufacturer's instructions. Luminescence was quantified using a Synergy 4 plate reader.

For data set [10], the system named is SW620 cells. Nature of the data set: In vitro drug exposure, immunoblot of cleaved PARP and cleaved caspase-3, SW620 cells. It is filed as cell-based, human. The conditions noted are these: 24 h, 0-5000 nM. The method, then: (§2) For cell cycle analysis, SW620 and DLD-1 cells were propagated to 50% confluency in 6 cm plates and treated with AZD-1152-hydroxyquinazoline pyrazol anilide (HQPA) (Selleckchem), 0, 10, 100, 1000, or 5000 nM, for 24 or 48 hrs and prepared for flow cytometry as described (2). Propidium iodide (PI)-stained cells were analyzed by flow cytometry (FACStar PLUS, Becton-Dickinson). Data analysis was performed using CellQuest software (Becton-Dickinson) by manually gating to define and quantify sub-G0, G1, S, G2/M, and polyploidy populations. For assay of apoptosis following in vitro AZD-1152-HQPA exposure, SW620 and DLD-1 cells were seeded as sub-confluent monolayer cultures at a density of 1×10^4 per well into 96-well, black wall/bottom plates (BD Biosciences), allowed to adhere for 24 h, and treated with AZD-1152-HQPA, 0, 10, 50, 75, 100, or 1,000 nM, for 24 hrs. Apoptosis was assessed using the Caspase-Glo 3/7 reagent, in accordance with manufacturer's instructions, and analyzed using a Synergy 4 plate reader.
(§3) After 24 h of drug exposure, in vitro cell samples were collected from 10-cm plates. Medium was removed and cell monolayers washed with 1× phosphate buffered saline (PBS) followed by addition of […] of lysis buffer containing: 7 mL of CelLytic M lysis buffer (Sigma), mini protease inhibitor cocktail (Roche), and […] of phosphatase inhibitor cocktail 1 and 2 (Sigma). […]
(In general: Immunoblotting shows a protein as a band on a membrane.)

Data set [11] concerns DLD-1 cells. Put plainly: In vitro drug exposure, immunoblot of cleaved PARP and cleaved caspase-3, DLD-1 cells. It counts as cell-based, human. The conditions noted are these: 24 h, 0-5000 nM. The procedure: as §2, §3

T4 sequence (Q14790 217-374 limits assumed): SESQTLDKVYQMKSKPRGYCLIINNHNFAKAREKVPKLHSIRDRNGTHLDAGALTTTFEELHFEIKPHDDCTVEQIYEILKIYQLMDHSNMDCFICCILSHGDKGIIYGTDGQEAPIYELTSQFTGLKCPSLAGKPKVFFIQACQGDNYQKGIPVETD
T4 sequence (Q14790 385-479 limits assumed): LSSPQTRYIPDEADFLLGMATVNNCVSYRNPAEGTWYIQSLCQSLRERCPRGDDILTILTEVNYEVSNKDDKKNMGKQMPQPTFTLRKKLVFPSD

“Val-Ala-Asp(OMe)-fluoromethylketone [VAD-FMK, American Peptide, reference compound]”: the “inhibition potency, caspase-3” value in data set [1] is listed as “single micro molar potency”. Besides, the “inhibition potency, caspase-6” value in [2] was “single micro molar potency”. For the same compound, the “inhibition potency, caspase-7” value in data set [3] is recorded as “single micro molar potency”. Also, in data set [4], the “inhibition potency, caspase-8” value is “slightly greater potency”.
Consider “benzyloxycarbonyl-Val-Ala-Asp(OMe)-fluoromethylketone [Z-VAD-FMK, obtained commercially (TOCRIS Bioscience, #2163), reference compound]”, for which the “log P7.5” value in data set [5] was 2.20.
Consider `CCN(CCCOc1ccc2c(Nc3cc(CC(=O)Nc4cccc(F)c4)n[nH]3)ncnc2c1)CCOP(=O)(O)O` [AZD-1152], for which, in data set [6], the “caspase-3 immunoreactivity compared to vehicle” value was “elevated caspase-3 immunoreactivity”.
As for “[^18F]4-fluorobenzylcarbonyl-Val-Ala-Asp(OMe)-fluoromethylketone [[^18F]FB-VAD-FMK]”, in data set [7], the “radioactivity in brain, lung, or bone” value is listed as “Very little radioactivity”; the “tissue activity in kidneys and liver” value is listed as “greatest activity”. In addition, in data set [8], the “parent compound in bile and urine samples” value is at least 50%.
Turning to `COC(=O)C[C@H](NC(=O)[C@H](C)NC(=O)[C@@H](NC(=O)c1ccc(F)cc1)C(C)C)C(=O)CF` [[^19F]FB-VAD-FMK], the “times less lipophilic than Z-VAD-FMK and [^127I]IZ-VAD-FMK” value in data set [5] (from log P7.5 values) is on record as 50-100 times. In addition, the “log P7.5” value in [5] was 1.41. For the same compound, the “inhibition of caspase-3/7 activity” value in data set [9] (DiFi cells in log-phase growth (untreated)) is “nanomolar concentrations”; in data set [9] (DiFi cells, apoptosis induced by cetuximab 0.5 μg/mL 24 h), “comparable efficacy to the parent peptide”. In addition, the “inhibition potency, caspase-3” value in data set [1] is recorded as “single micro molar potency”. Further, the “inhibition potency, caspase-6” value in [2] is “single micro molar potency”. The “inhibition potency, caspase-7” value in [3] is “single micro molar potency”. The “inhibition potency, caspase-8” value in data set [4] is on record as “slightly greater potency”.
With “[^127I]4-iodobenzyloxycarbonyl-Val-Ala-Asp(OMe)-fluoromethylketone [[^127I]IZ-VAD-FMK]”, the “log P7.5” value in data set [5] is given as 2.38.
As for `CCN(CCO)CCCOc1ccc2c(Nc3cc(CC(=O)Nc4cccc(F)c4)[nH]n3)ncnc2c1` [AZD-1152-HQPA, AZD-1152-hydroxyquinazoline pyrazol anilide], the “cleaved PARP and cleaved caspase-3 levels” value in [10] and in data set [11] was “concentration-dependent increases” each time.
